Here are results for 28 molecules from patent US12234245B2, “Sulfonimidamide compounds as inhibitors of interleukin-1 activity” (Genentech, Inc., priority 2018, dated 2025).

Read-outs that look alike come from different tables or passages of the source. A value given as a limit tells only on which side of the number the result lay.

Format in all cases: cell-based
Test [1] concerns the target T1, NLRP3 inflammasome (Homo sapiens, UniProt Q96P20). The experiment in a line: NLRP3 inflammasome activation assay in PBMCs, IL-1β release (ELISA / HTRF). On the set-up: were freshly isolated from human peripheral blood from healthy donors; StemCells Technologies; host or cells: primary human PBMCs, LPS-primed, nigericin-stimulated. The conditions noted are these: LPS primed. As for the experimental part: Some of the following assays were used to determine the inhibitory activity of the compounds on the NLRP3 inflammasome using a common inflammasome activation stimuli—nigericin.
(§1) Human peripheral blood mononuclear cells (PBMCs), consisting of lymphocytes (T, B and NK cells), monocytes and dendritic cells, were freshly isolated from human peripheral blood from healthy donors. Cells were obtained through an IRB approved donor program by iXCells Biotechnologies where all the donors were tested for bacterial and viral infections. Cells were purified from peripheral blood using ficoll gradient centrifugation.
(§2) Fresh or cryopreserved PMBCs were seeded in V-bottom 96-well plate at 0.5-1×10^5 cells per well and incubated overnight at 37° C. with 5% CO2 in RPMI 1640 medium with GlutaMAX supplement, 4.5 g/L D-glucose, 10% Fetal Bovine Serum (FBS), […] Sodium Pyruvate, 1% Penicillin/Streptomycin, 10 mM HEPES and 0.05 mM of β-mercaptoethanol. Freshly isolated or cryopreserved KCs cells were seeded in flat-bottom 96-well plates at 0.6-1.5×10^5 cells/well and incubated overnight at 37° C. 5% CO2 in RPMI 1640 Medium with GlutaMAX supplement, FBS, 1% Penicillin/Streptomycin and 10 mM HEPES. The following day, the cells were primed with 100 ng/mL of lipopolysaccharides (LPS; Sigma Aldrich) in FBS-free RPMI 1640 for 3 h. After the priming step, the media was removed and PBMCs were pre-incubated with serial concentrations of test compounds (0.00017-10 uM) or vehicle (DMSO) for 30 min in FBS-free media prior to addition of the NLRP3 activator. Cells were then stimulated with 10 uM Nigericin (Sigma Aldrich; InvivoGen) for 1.5 h. Plates were centrifuged at 1,500 rpm for 3 minutes to pellet cells and supernatant was transferred into new plates for subsequent experiments.
For ELISA assays cells were seeded into 96-well plates. Post study, supernatants were removed and the levels of mature IL-1β, IL18 and TNFα (Quantikine ELISA, R&D systems) were measured in cell conditioned media by ELISA according to manufacturer's instructions.
Human frozen PBMCs were purchased from StemCells Technologies. Cells were rapidly thawed in 37° C. water bath and resuspended in fresh assay media consisting of RPMI 1640 Medium containing 1% sodium pyruvate, 10 mM HEPES, 2.5 g/L glucose and 55 μM 2-Mercaptoethanol. Cell density was adjusted to 8.1×10^5 cells/mL. Cells were primed by adding lipopolysaccharide (Invivogen Ultrapure lipopolysaccharide from E. coli, tlrl-3pelps) at a final concentration of 100 ng/mL in cell suspension. 37 μL of cell suspension with LPS was seeded per well of a 384 well plate and incubated for 3 hours at 37° C. and 5% CO2. After priming, PBMCs were preincubated with serially diluted test compounds with starting concentration of 40 μM followed by 2-fold dilution for a 20-point curve or vehicle (DMSO) for 30 min in assay media at 37° C. and 5% CO2. Cells were then stimulated with 10 μM nigericin (Invivogen, tlrl-nig-5) for 90 min at 37° C. and 5% CO2 to activate NLRP3 dependent inflammasome pathway and IL-1β release in cell culture supernatant. Cells were centrifuged at 1200 RPM for 1 min and 40 μL of supernatant was transferred into fresh plates and stored at −80° C. until IL-1β analysis.
16 μL of supernatant was added to white 384 well HTRF plates, followed by addition of 4 μL of HTRF cocktail in each well. Plates were quickly centrifuged, sealed and incubated overnight at room temperature. Next day, HTRF signal was read on a Pherastar and ratio of 665/620 was calculated based on manufacturer's protocol to obtain concentration of IL-1β in cell culture supernatant.
In general terms: ELISA stands for enzyme-linked immunosorbent assay.

Test [2] has as its target T1, NLRP3 inflammasome. Put plainly: THP-1 ASC-GFP speck assay. Particulars: THP-1 ASC-GFP cells, PMA differentiated, LPS primed, 10 μM nigericin; read-out: THP1 ASC Speck IC50. On the set-up: host or cells: THP-1 ASC-GFP cells, PMA-differentiated, LPS-primed, nigericin-stimulated. The method, boiled down:
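PMA-differentiated (500 ng/ml, overnight) THP-1 ASC-GFP cells primed with 1 μg/mL LPS for 3 h, preincubated 30 min with compound (top 40 μM, 2-fold, 20 points), then stimulated with 10 μM nigericin for 90 min at 37 °C. After fixation and Hoechst staining, imaging gave the percentage of cells bearing a GFP ASC speck.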

Another test deals with PBMCs. The experiment in a line: CTG (CellTiter-Glo) viability assay in PBMCs. Particulars: LPS and nigericin stimulated. On the procedure: as §1, §2
Viability of compound treated cells was measured using CellTiter-Glo® assay (Promega, Madison, Wis.) that measures the ATP content of cells which is proportional to the number of live cells within a well. This is a counter-screen to establish that the reduction of IL-1β levels in LPS and nigericin stimulated and compound treated cells is not due to cytotoxicity, but rather through the inhibition of the inflammasome pathway. Compounds inhibiting NRLP3 inflammasome activation ultimately increase the viability of LPS and nigericin stimulated cells by blocking NLRP3 mediated pyroptosis that would otherwise lead to cell lysis.
For orientation: ATP-based viability assays read luminescence as a measure of living cells.

Where [3] appears, read: 10 μM nigericin, read-out: PBMC IL-1β IC50.
Setting [4] is: 10 uM nigericin, read-out: PBMC IL-1 β IC50.

T1 sequence (Q96P20 whole entry): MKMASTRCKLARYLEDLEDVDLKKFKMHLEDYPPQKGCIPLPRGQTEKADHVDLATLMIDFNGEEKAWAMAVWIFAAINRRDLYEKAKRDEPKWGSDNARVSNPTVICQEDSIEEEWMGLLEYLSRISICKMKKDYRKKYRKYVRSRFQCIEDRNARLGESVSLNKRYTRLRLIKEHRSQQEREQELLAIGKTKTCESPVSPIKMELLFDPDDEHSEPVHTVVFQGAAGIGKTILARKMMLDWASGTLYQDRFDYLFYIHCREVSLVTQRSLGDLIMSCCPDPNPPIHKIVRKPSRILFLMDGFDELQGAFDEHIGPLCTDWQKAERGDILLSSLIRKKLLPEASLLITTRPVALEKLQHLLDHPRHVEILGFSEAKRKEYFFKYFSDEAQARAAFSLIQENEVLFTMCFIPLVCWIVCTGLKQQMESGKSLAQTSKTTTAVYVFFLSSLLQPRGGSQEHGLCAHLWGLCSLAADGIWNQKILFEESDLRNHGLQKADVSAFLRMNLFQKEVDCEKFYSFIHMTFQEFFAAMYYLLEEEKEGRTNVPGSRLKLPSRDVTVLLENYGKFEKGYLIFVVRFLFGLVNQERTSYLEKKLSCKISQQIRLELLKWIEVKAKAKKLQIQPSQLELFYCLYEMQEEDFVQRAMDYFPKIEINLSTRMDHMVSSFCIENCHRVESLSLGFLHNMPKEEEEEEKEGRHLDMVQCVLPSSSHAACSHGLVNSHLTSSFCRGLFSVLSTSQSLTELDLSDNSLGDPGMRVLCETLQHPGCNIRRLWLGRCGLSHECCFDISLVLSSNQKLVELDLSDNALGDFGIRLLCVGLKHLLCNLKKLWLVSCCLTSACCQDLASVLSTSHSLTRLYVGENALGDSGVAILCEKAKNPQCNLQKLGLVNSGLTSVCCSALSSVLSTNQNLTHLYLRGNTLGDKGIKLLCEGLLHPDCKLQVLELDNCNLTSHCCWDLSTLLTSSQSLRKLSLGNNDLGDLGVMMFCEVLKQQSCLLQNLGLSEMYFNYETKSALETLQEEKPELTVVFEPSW

What is called IC50 is the concentration that gives 50% inhibition. With `COC1CN(C2COc3c(S(N)(=O)=NC(=O)Nc4c5c(c(F)c6c4CCC6)CCC5)cnn3C2)C1` (single isomer, unassigned) [Example 43], the IC50 at NLRP3 inflammasome [1] (setting [3]) was 430 nM; at NLRP3 inflammasome [2], 1900 nM.

With `NC1COc2c(S(N)(=O)=NC(=O)Nc3c4c(cc5c3CCC5)CCC4)cnn2C1` (single isomer, unassigned) [Example 58], the IC50 was greater than 10000 nM at NLRP3 inflammasome [1] (setting [3]) and 5500 nM at NLRP3 inflammasome [2]. For `CNC1COc2c(S(N)(=O)=NC(=O)Nc3c(C(C)C)cc(OC)nc3C(C)C)cnn2C1` (single isomer, unassigned) [Example 51], in that order: greater than 10000 nM and 17000 nM. As for `COCCNC1COc2c(S(N)(=O)=NC(=O)Nc3c4c(cc5c3CCC5)CCC4)cnn2C1` (single isomer, unassigned) [Example 54], the IC50 at NLRP3 inflammasome [1] (setting [3]) was found to be 330 nM; at NLRP3 inflammasome [2] it was 360 nM. For the molecule `NS(=O)(=NC(=O)Nc1c2c(c(F)c3c1CCC3)CCC2)c1cnn2c1OCCC2` (centres unmarked), the IC50 is less than 100 nM at NLRP3 inflammasome [1] (setting [4]) and less than 100 nM with PBMCs (Homo sapiens, PBMC). Consider `CC(C)c1cc(F)cc(C(C)C)c1NC(=O)NS(=N)(=O)c1cnn2c1OCCC2` (centres unmarked) [drawing 651], for which the IC50 was 100 to 1000 nM at NLRP3 inflammasome [1] (setting [4]) and 100 to 1000 nM in the test on PBMCs (human PBMCs, read-out: PBMC CTG IC50). On to `N[C@@H]1COc2c([S@@](N)(=O)=NC(=O)Nc3c4c(cc5c3CCC5)CCC4)cnn2C1` [Example 59, (S,6S)-6-amino-N′-((1,2,3,5,6,7-hexahydro-s-indacen-4-yl)carbamoyl)-6,7-dihydro-5H-pyrazolo[5,1-b][1,3]oxazine-3-sulfonimidamide], for which the concentration for half-maximal inhibition (IC50) worked out at 95 nM on NLRP3 inflammasome [1] (setting [3]) and 260 nM on NLRP3 inflammasome [2].

Regarding `COc1cc(C(C)C)c(NC(=O)N=S(N)(=O)c2cnn3c2OCC(OC)C3)c(C(C)C)n1` (single isomer, unassigned) [Example 52], the IC50 at NLRP3 inflammasome [1] (setting [3]) was 15100 nM; on NLRP3 inflammasome [2], greater than 20000 nM. For `N#CNS(=O)(=NC(=O)Nc1c2c(cc3c1CCC3)CCC2)c1cnn2c1OCCC2` (single isomer, unassigned) [Example 68], in that order: 380 nM and 330 nM. Consider `CN(C)[C@@H]1COc2c([S@@](N)(=O)=NC(=O)Nc3c4c(c(F)c5c3CCC5)CCC4)cnn2C1` (single isomer, unassigned) [Example 45], for which the IC50 on NLRP3 inflammasome [1] (setting [3]) is 0.7 nM; at NLRP3 inflammasome [2], 11 nM. For the molecule `CC1CCOc2c(S(N)(=O)=NC(=O)Nc3c4c(cc5c3CCC5)CCC4)cnn2C1` (single isomer, unassigned) [Example 64], the IC50 on NLRP3 inflammasome [1] (setting [3]) and at NLRP3 inflammasome [2] was greater than 20000 nM each time.

As for `NS(=O)(=NC(=O)Nc1c2c(c(F)c3c1CCC3)CCC2)c1cnn2c1OC[C@@H](NCCF)C2` (single isomer, unassigned) [Example 47], the values for the IC50 on NLRP3 inflammasome [1] (setting [3]) and at NLRP3 inflammasome [2] were 330 nM and 1700 nM, respectively.

For the molecule `CNCCOC1COc2c(S(N)(=O)=NC(=O)Nc3c4c(cc5c3CCC5)CCC4)cnn2C1` (single isomer, unassigned) [Example 56], the IC50 on NLRP3 inflammasome [1] (setting [3]) was greater than 10000 nM; at NLRP3 inflammasome [2] it was greater than 20000 nM. On the same counts, the results for `COc1cc(C(C)C)c(NC(=O)N=S(N)(=O)c2cnn3c2OC[C@@H](N2CC(OC)C2)C3)c(C(C)C)n1` (single isomer, unassigned) [Example 49] are 490 nM and 400 nM. For `CN(C)[C@@H]1COc2c([S@](N)(=O)=NC(=O)Nc3c4c(c(F)c5c3CCC5)CCC4)cnn2C1` (single isomer, unassigned) [Example 44], in that order: 86 nM and 450 nM.

Consider `COc1cc(C(C)C)c(NC(=O)N=S(N)(=O)c2cnn3c2OCC(N2CC(OC)C2)C3)c(C(C)C)n1` (single isomer, unassigned) [Example 48], for which, at NLRP3 inflammasome [1] (setting [3]), the IC50 was greater than 10000 nM. In the case of `CC1CCOc2c(S(N)(=O)=NC(=O)Nc3c4c(cc5c3CCC5)CCC4)cnn2C1` (single isomer, unassigned) [Example 67], the results for the half-maximal inhibitory concentration (IC50) at NLRP3 inflammasome [1] (setting [3]) and at NLRP3 inflammasome [2] were 220 nM and 1400 nM, respectively. As to `CNCCO[C@@H]1COc2c(S(N)(=O)=NC(=O)Nc3c4c(cc5c3CCC5)CCC4)cnn2C1` (single isomer, unassigned) [Example 57], the IC50 on NLRP3 inflammasome [1] (setting [3]) worked out at 1670 nM. For the molecule `CC(=O)NS(=O)(=NC(=O)Nc1c2c(c(F)c3c1CCC3)CCC2)c1cnn2c1OCCC2` (single isomer, unassigned) [Example 95], the IC50 on NLRP3 inflammasome [1] (setting [3]) came out at 2230 nM. With `COCCNC1COc2c(S(N)(=O)=NC(=O)Nc3c4c(cc5c3CCC5)CCC4)cnn2C1` (single isomer, unassigned) [Example 55], the half-maximal inhibitory concentration (IC50) at NLRP3 inflammasome [1] (setting [3]) is greater than 10000 nM; at NLRP3 inflammasome [2], 7200 nM.

Turning to `COC1CN(C2COc3c(S(N)(=O)=NC(=O)Nc4c5c(c(F)c6c4CCC6)CCC5)cnn3C2)C1` (single isomer, unassigned) [Example 42], the IC50 was 5 nM on NLRP3 inflammasome [1] (setting [3]) and 18 nM at NLRP3 inflammasome [2]. On the same counts, the results for `CC1CCOc2c(S(N)(=O)=NC(=O)Nc3c4c(cc5c3CCC5)CCC4)cnn2C1` (single isomer, unassigned) [Example 66] are greater than 20000 nM and greater than 20000 nM. As to `Cn1ccc(S(=O)(=NC(=O)Nc2c3c(cc4c2CCC4)CCC3)NCc2ccccc2)n1` (centres unmarked) [Example 11, N′-benzyl-N-((1,2,3,5,6,7-hexahydro-s-indacen-4-yl)carbamoyl)-1-methyl-1H-pyrazole-3-sulfonimidamide], the IC50 on NLRP3 inflammasome [1] (setting [3]) was greater than 10000 nM. With `COc1cc(C(C)C)c(NC(=O)N=S(N)(=O)c2cnn3c2OCC(OC)C3)c(C(C)C)n1` (single isomer, unassigned) [Example 53], the values for the IC50 at NLRP3 inflammasome [1] (setting [3]) and on NLRP3 inflammasome [2] were 470 nM and 1200 nM, respectively.

`NS(=O)(=NC(=O)Nc1c2c(c(F)c3c1CCC3)CCC2)c1cnn2c1OCC(NCCF)C2` (single isomer, unassigned) [Example 46]: the results for the IC50 on NLRP3 inflammasome [1] (setting [3]) and on NLRP3 inflammasome [2] were 7 nM and 81 nM, respectively. Turning to `CN[C@@H]1COc2c(S(=N)(=O)NC(=O)Nc3c4c(cc5c3CCC5)CCC4)cnn2C1` (some centres unmarked) [drawing 673], the IC50 at NLRP3 inflammasome [1] (setting [4]) was in the range of 100 to 1000 nM. With `NS(=O)(=NC(=O)Nc1c2c(cc3c1CCC3)CCC2)c1cnn2c1CCCC2` (racemic) [Example 60, N′-((1,2,3,5,6,7-hexahydro-s-indacen-4-yl)carbamoyl)-4,5,6,7-tetrahydropyrazolo[1,5-a]pyridine-3-sulfonimidamide], the IC50 on NLRP3 inflammasome [1] (setting [3]) amounted to 3640 nM.

Regarding `CNC1COc2c(S(N)(=O)=NC(=O)Nc3c(C(C)C)cc(OC)nc3C(C)C)cnn2C1` (single isomer, unassigned) [Example 50], the IC50 on NLRP3 inflammasome [1] (setting [3]) was found to be 200 nM; on NLRP3 inflammasome [2], 430 nM.
